Experimental data: patent publication US10221162B2, “Triazole agonists of the APJ receptor” (priority 2015, dated 2019)

Tests used:
[1] = test system: isolated perfused rat hearts; test: Ex vivo isolated perfused rat heart (Langendorff) assay; conditions: percent change; for Isolated Heart Assay dP/dtmax (%): LV contractility; for Isolated Heart Assay dP/dtmin (%): LV relaxation
[2] = test system: heart failure rat model; test: In vivo cardiac contractility in heart failure (MI) rat model; conditions: heart failure rats; for cardiac contractility as measured by dP/dt: acute administration for 30 min, result in words
Protocol: Male Lewis rats (Charles River, USA) at 2-3 months of age were used for the study. […] APJ agonists were administered dose dependently acutely for a period of 30 min.
The interaction between […] (ACE2) and Apelin biology is complicated. To investigate the interaction between the Apelin-APJ and ACE signalling pathways, we examined the improvement in cardiac function with APJ small molecule agonists in the presence of ACE inhibitor captopril in heart failure rats in vivo.

SMILES	Isolated Heart Assay dP/dtmax (%) [1] [%]	Isolated Heart Assay dP/dtmin (%) [1] [%]	improvement in contractility or ejection fraction ([2]; captopril alone, acute settings)	cardiac contractility as measured by dP/dt [2]
COc1cccc(OC)c1-n1c(NS(=O)(=O)[C@@H](C)[C@H](C)c2ncc(F)cn2)nnc1-c1cccnc1 (single isomer, unassigned) [Example 184.0, (2R,3S)-N-(4-(2,6-dimethoxyphenyl)-5-(3-pyridinyl)-4H-1,2,4-triazol-3-yl)-3-(5-fluoro-2-pyrimidinyl)-2-butanesulfonamide or (2S,3R)-N-(4-(2,6-dimethoxyphenyl)-5-(3-pyridinyl)-4H-1,2,4-triazol-3-yl)-3-(5-fluoro-2-pyrimidinyl)-2-butanesulfonamide]	14.5	14.0		
COc1cccc(OC)c1-n1c(NS(=O)(=O)[C@@H](C)[C@H](OC)c2ncc(F)cn2)nnc1-c1cncc(C)c1 (single isomer, unassigned) [Example 242.0]	5.0	−2.7		
COc1cccc(OC)c1-n1c(NS(=O)(=O)[C@@H](C)[C@H](OC)c2ncc(F)cn2)nnc1-c1cccnc1 (single isomer, unassigned) [Example 244.0]	14.0	15.0		
COc1cccc(OC)c1-n1c(NS(=O)(=O)[C@H](C)[C@@H](OC)c2ccc(Cl)cn2)nnc1-c1cccnc1 (single isomer, unassigned) [Example 531.0, (1S,2R)-1-(5-chloro-2-pyridinyl)-N-(4-(2,6-dimethoxyphenyl)-5-(3-pyridinyl)-4H-1,2,4-triazol-3-yl)-1-methoxy-2-propanesulfonamide or (1R,2S)-1-(5-chloro-2-pyridinyl)-N-(4-(2,6-dimethoxyphenyl)-5-(3-pyridinyl)-4H-1,2,4-triazol-3-yl)-1-methoxy-2-propanesulfonamide]	4.1	1.9		
COc1cnc([C@H](O)[C@@H](C)S(=O)(=O)Nc2nnc(-c3cccnc3)n2-c2c(OC)cccc2OC)cn1 (single isomer, unassigned) [Example 706.0, (1S,2R)-N-(4-(2,6-dimethoxyphenyl)-5-(3-pyridinyl)-4H-1,2,4-triazol-3-yl)-1-hydroxy-1-(5-methoxy-2-pyrazinyl)-2-propanesulfonamide or (1R,2S)-N-(4-(2,6-dimethoxyphenyl)-5-(3-pyridinyl)-4H-1,2,4-triazol-3-yl)-1-hydroxy-1-(5-methoxy-2-pyrazinyl)-2-propanesulfonamide]	9.1	4.0		
COc1ncnc(OC)c1-n1c(NS(=O)(=O)[C@@H](C)[C@H](OC)c2ccc(Cl)cn2)nnc1-c1cccnc1 (single isomer, unassigned) [Example 711.0, (1R,2S)-1-(5-chloro-2-pyridinyl)-N-(4-(4,6-dimethoxy-5-pyrimidinyl)-5-(3-pyridinyl)-4H-1,2,4-triazol-3-yl)-1-methoxy-2-propanesulfonamide or (1S,2R)-1-(5-chloro-2-pyridinyl)-N-(4-(4,6-dimethoxy-5-pyrimidinyl)-5-(3-pyridinyl)-4H-1,2,4-triazol-3-yl)-1-methoxy-2-propanesulfonamide]	9.4	1.1		
C[C@H](CS)C(=O)N1CCC[C@H]1C(=O)O [Captopril]			does not show a marked improvement in contractility or ejection fraction	
COc1cccc(-c2nnc(NS(=O)(=O)[C@@H](C)[C@H](OC)c3ncc(C)cn3)n2-c2c(OC)cccc2OC)n1 [Example 27.0, (1R,2S)—N-(4-(2,6-dimethoxyphenyl)-5-(6-methoxypyridin-2-yl)-4H-1,2,4-triazol-3-yl)-1-methoxy-1-(5-methylpyrimidin-2-yl)propane-2-sulfonamide]				increase in cardiac contractility
CCO[C@H](c1ncc(C)cn1)[C@H](C)S(=O)(=O)Nc1nnc(-c2cccnc2)n1-c1c(OC)cccc1OC [Example 109.0, (1R,2S)-N-(4-(2,6-dimethoxyphenyl)-5-(pyridin-3-yl)-4H-1,2,4-triazol-3-yl)-1-ethoxy-1-(5-methylpyrimidin-2-yl)propane-2-sulfonamide]				increase in cardiac contractility
